The text below walks through data of patent publication US10167313B2, “Selective caspase inhibitors and uses thereof” (Genesis Technologies Limited, priority 2008, dated 2019).

One assay deals with caspase-1 (Homo sapiens (Human), UniProt P29466). As to the kind of experiment: Caspase-1 Inhibitor Drug Screening Kit, fluorometric enzymatic assay. The conditions noted are these: for IC50: read-out: Caspase enzymatic activity, IC50 (uM) Caspase 1, 30-minute incubation at 37° C., AFC liberation; for inhibitory activity for caspase-1 (in words): tested dose-range 1-3333 nM.
The next assay deals with caspase-5 (Homo sapiens (Human), UniProt P51878). Description: Caspase-5 Inhibitor Drug Screening Kit, fluorometric enzymatic assay. The conditions noted are these: for IC50: read-out: Caspase enzymatic activity, IC50 (uM) Caspase 5, 30-minute incubation at 37° C., AFC liberation; for inhibitory activity for caspase-5 (in words): tested dose-range 1-3333 nM.
Another assay has as its target caspase-9 (Homo sapiens (Human), UniProt P55211). As to the kind of experiment: Caspase-9 Inhibitor Drug Screening Kit, fluorometric enzymatic assay. As to conditions: for IC50: read-out: Caspase enzymatic activity, IC50 (uM) Caspase 9, 30-minute incubation at 37° C., AFC liberation; for inhibitory activity for caspase-9 (in words): tested dose-range 1-3333 nM.
Another assay relates to Hela cells. Description: Inhibition of proteolytic cleavage of PARP in staurosporine-treated live Hela cells. Type of assay: cell-based. As to conditions: for inhibition at 50 µM: Homo sapiens; for effectivity in inhibiting PARP cleavage (in words): relative to DEVD-fmk. As for the experimental part:
To test the efficacy of caspase-3 inhibitors at the cellular level, the ability of selected compounds to inhibit the proteolytic cleavage of PARP (poly ADP-ribose polymerase) was evaluated in live Hela cells.
Briefly, in this assay Hela cells are seeded in 96 well plates and incubated for 4 hours with staurosporine, a well characterized inducer of apoptosis, alone or together with different concentrations of compound (50, 25, 10 and 3 uM). After formaldehyde-based fixation, the cells are stained with a fluorescein-labeled anti-cleaved PARP antibody (Cell signaling, Cat#: 9547) and counterstained with Hoechst33342 (Invitrogen, Cat#: H3570) to mark all nuclei. Fluorescence images are taken on a Cellomics™ microscope system (Thermo Scientific, Pittsburgh, USA) with the Hoechst stain in the blue channel and the cleaved PARP antibody stain in the green channel. The percentage of cleaved PARP positive cells is determined by calculating the ratio between nuclei with a cleaved PARP antibody staining above a certain threshold and all (Hoechst positive) nuclei. The efficacy of caspase-3 inhibition is determined by calculating the ratio between cleaved PARP positive cells after staurosporine incubation together with compounds and staurosporine incubation without compounds.

In another assay the target is Caspase 3/7 (Glo3/7). Description: Glo3/7 assay.
The next assay deals with caspase-7 (Homo sapiens (Human), UniProt P55210). As to the kind of experiment: Caspase-7 Inhibitor Drug Screening Kit, fluorometric enzymatic assay. As to conditions: based on the IC50 values.
Where [1] appears, read: 50 uM, relative to DEVDFMK, read-out: % of inhibition with compound relative to DEVDFMK.
[2] abbreviates: read-out: % inhibition of PARP cleavage at 50 uM compound, staurosporine 4 hours, 50 uM compound.

Like-named read-outs stand apart in the source and are kept apart here.

caspase-9, sequence (P55211 1-315): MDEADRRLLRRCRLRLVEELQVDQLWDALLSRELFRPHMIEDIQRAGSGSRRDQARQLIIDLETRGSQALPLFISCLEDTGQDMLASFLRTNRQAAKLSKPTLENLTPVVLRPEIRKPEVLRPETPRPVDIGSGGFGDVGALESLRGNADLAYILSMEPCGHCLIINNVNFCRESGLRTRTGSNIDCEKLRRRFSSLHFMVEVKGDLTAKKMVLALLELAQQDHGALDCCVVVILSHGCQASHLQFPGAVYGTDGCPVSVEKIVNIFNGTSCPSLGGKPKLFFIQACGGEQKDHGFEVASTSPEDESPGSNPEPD
caspase-9, sequence (P55211 331-416): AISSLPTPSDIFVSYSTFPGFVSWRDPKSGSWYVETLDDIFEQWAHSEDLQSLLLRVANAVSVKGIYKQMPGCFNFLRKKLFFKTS
caspase-5, sequence (P51878 137-327): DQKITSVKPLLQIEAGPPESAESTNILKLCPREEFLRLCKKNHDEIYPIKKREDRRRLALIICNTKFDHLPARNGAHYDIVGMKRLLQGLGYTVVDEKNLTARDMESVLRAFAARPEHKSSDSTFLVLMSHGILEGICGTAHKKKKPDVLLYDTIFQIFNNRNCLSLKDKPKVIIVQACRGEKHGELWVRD
caspase-5, sequence (P51878 347-434): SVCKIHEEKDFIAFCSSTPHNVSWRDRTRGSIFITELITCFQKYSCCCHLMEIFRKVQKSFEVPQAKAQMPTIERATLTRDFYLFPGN
caspase-1, sequence (P29466 120-297): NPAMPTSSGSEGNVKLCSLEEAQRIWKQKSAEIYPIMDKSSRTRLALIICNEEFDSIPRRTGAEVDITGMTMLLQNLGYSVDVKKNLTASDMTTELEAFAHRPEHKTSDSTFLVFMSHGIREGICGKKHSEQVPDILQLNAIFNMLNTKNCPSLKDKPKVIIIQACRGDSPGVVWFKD
caspase-1, sequence (P29466 317-404): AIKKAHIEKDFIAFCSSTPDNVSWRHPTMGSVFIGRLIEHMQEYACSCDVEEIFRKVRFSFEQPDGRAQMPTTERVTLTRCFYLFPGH
caspase-7, sequence (P55210 24-198): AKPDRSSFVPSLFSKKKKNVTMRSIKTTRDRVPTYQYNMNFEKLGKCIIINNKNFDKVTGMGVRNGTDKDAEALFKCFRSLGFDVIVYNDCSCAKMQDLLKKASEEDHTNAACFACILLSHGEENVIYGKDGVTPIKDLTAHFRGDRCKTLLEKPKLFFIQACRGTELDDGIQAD
caspase-7, sequence (P55210 207-303): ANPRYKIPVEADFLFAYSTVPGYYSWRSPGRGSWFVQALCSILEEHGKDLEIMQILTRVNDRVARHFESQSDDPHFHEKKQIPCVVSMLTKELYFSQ
Procedure for caspase-1: (§1) The level of inhibition of caspase-1, -3, -5, -7, -9 activity was determined by comparison of the relative fluorescence intensity in samples with or without the compound.
Procedure for caspase-5: as §1
Procedure for caspase-7: as §1
Procedure for caspase-9: as §1

Consider `CC(C)[C@H](NC(=O)[C@H](Cc1ccc(O)cc1)NC(=O)[C@H](CC(=O)O)NC(=O)OCc1ccccc1)C(=O)N[C@H](/C=C/S(C)(=O)=O)CC(=O)O` [Compound 76, Z-Asp-Tyr-Val-Aspmethyl vinyl sulfone], for which the IC50 at caspase-1 is greater than 3.33 µM; at caspase-5 it was greater than 3.33 µM; at caspase-9 it was greater than 3.33 µM; against Caspase 3/7 (Glo3/7), 0.04 µM. Besides, in the assay with Hela cells, the “reduction of the percentage of PARP positive cells after staurosporine treatment” value is “more than 50%”. The inhibition at 50 µM in the assay on Hela cells (setting [1]) is 60%; in the assay with Hela cells (setting [2]), 55%.
Turning to `CC(C)[C@H](NC(=O)[C@@H](NC(=O)[C@H](CC(=O)O)NC(=O)OCc1ccccc1)c1ccccc1)C(=O)N[C@H](/C=C/S(C)(=O)=O)CC(=O)O` [Compound 53, Z-Asp-Phg-Val-Aspmethyl vinyl sulfone], the results for the IC50 on caspase-5, on caspase-9 and against Caspase 3/7 (Glo3/7) were greater than 10 µM, greater than 10 µM and 0.1 µM, respectively. Further, the “selectivity of caspase-3 over caspase-7 (IC50 fold difference)” value at caspase-7 was “about 12 fold”. Besides, the “reduction of the percentage of PARP positive cells after staurosporine treatment” value in the assay with Hela cells was “more than 50%”. The inhibition at 50 µM came to 80% in the assay on Hela cells (setting [1]) and 55% with Hela cells (setting [2]). Further, the “effectivity in inhibiting PARP cleavage (in words)” value with Hela cells is reported as “highly effective relative to DEVD-fmk”.
On to `CC(C)[C@H](NC(=O)[C@H](Cc1ccc2ccccc2n1)NC(=O)[C@H](CC(=O)O)NC(=O)OCc1ccccc1)C(=O)N[C@H](/C=C/S(C)(=O)=O)CC(=O)O` [Compound 55, Z-Asp-Ala(2′-quinolyl)-Val-Aspmethyl vinyl sulfone], for which the IC50 at caspase-1 was greater than 10 µM; at caspase-5 it was greater than 10 µM; at caspase-9 it was greater than 3.33 µM; against Caspase 3/7 (Glo3/7), 0.1 µM. The inhibition at 10 µM at caspase-1 (read-out: Inhibition of Caspase-1) is 25%; on caspase-5 (read-out: Inhibition of Caspase-5) it was 21%; on caspase-9 (read-out: Inhibition of Caspase-9), 57%. The “inhibitory activity for caspase-1 (in words)” value at caspase-1 was “No significant inhibitory activity”. Besides, at caspase-5, the “inhibitory activity for caspase-5 (in words)” value is on record as “No significant inhibitory activity”. Also, the “inhibitory activity for caspase-9 (in words)” value on caspase-9 is recorded as “No significant inhibitory activity”. Besides, the values for the inhibition at 50 µM in the assay on Hela cells (setting [1]) and in the assay with Hela cells (setting [2]) were 60% and 40%, respectively. Further, in the assay on Hela cells, the “effectivity in inhibiting PARP cleavage (in words)” value is on record as “showing effectivity”.
For `CC(C)[C@H](NC(=O)[C@H](Cc1ccc2ccccc2n1)NC(=O)[C@H](CC(=O)O)NC(=O)OCc1ccccc1)C(=O)N[C@H](/C=C/S(=O)(=O)c1ccccc1)CC(=O)O` [Compound 63, Z-Asp-Ala(2′-quinolyl)-Val-Aspphenyl vinyl sulfone], the IC50 at caspase-1 was greater than 3.33 µM; at caspase-5 it was greater than 3.33 µM; at caspase-9 it was greater than 3.33 µM; at Caspase 3/7 (Glo3/7), 0.9 µM. In addition, the “inhibitory activity for caspase-1 (in words)” value against caspase-1 is on record as “No significant inhibitory activity”. In addition, on caspase-5, the “inhibitory activity for caspase-5 (in words)” value is listed as “No significant inhibitory activity”. For the same molecule, the “inhibitory activity for caspase-9 (in words)” value against caspase-9 was “No significant inhibitory activity”. Further, the “selectivity of caspase-3 over caspase-7 (IC50 fold difference)” value on caspase-7 is roughly 50 fold. The inhibition at 50 µM in the assay on Hela cells (setting [1]) was 15%; in the assay on Hela cells (setting [2]), 10%.
Turning to `CC(C)[C@H](NC(=O)[C@@H](NC(=O)[C@H](CC(=O)O)NC(=O)OCc1ccccc1)C1Cc2ccccc2C1)C(=O)N[C@H](/C=C/S(C)(=O)=O)CC(=O)O` [Compound 57, Z-Asp-Indanylglycine-Val-Aspmethyl vinyl sulfone], the “fold less efficiency against caspase-1 than against group III caspases” value on caspase-1 was “about 29 fold”. Also, the values for the IC50 on caspase-5, at caspase-9 and against Caspase 3/7 (Glo3/7) were greater than 3.33 µM, greater than 3.33 µM and 0.1 µM, respectively. For the same molecule, the inhibition at 50 µM with Hela cells (setting [1]) stood at 70%; with Hela cells (setting [2]), 65%.
Turning to `CC(C)[C@H](NC(=O)[C@H](Cc1ccc2ccccc2n1)NC(=O)[C@H](CC(=O)O)NC(=O)OCc1ccccc1)C(=O)N[C@H](/C=C(\Cl)S(C)(=O)=O)CC(=O)O` [Compound 48, Z-Asp-Ala(2′-quinolyl)-Val-Asp- αchlorovinyl methylsulfone], the IC50 on caspase-1 is greater than 3.33 µM; on caspase-5 it was greater than 3.33 µM; at Caspase 3/7 (Glo3/7) it was 0.1 µM. Also, the results for the inhibition at 50 µM in the assay with Hela cells (setting [1]) and with Hela cells (setting [2]) were 65% and 45%, respectively. In the assay on Hela cells, the “effectivity in inhibiting PARP cleavage (in words)” value was “showing effectivity”.

Broadly, the IC50 is the concentration at which inhibition is half-maximal. As usually defined, the inhibition is the share of the control response that was lost under treatment.
